# According to patent publication US6642251B1, “Geometrically restricted 2-indolinone derivatives as modulators of protein kinase activity” (Sugen, Inc., priority 1998, dated 2003):
# Biological target: EGFR (Homo sapiens, UniProt P00533)
# Experiment: Cellular EGFR assay (cell EGFR)
# Format: cell-based
# Design: expressed in transfected cells; host or cells: NIH 3T3/C7
# Conditions: 50% inhibition of target PTK activity
# Protocol: EGF Receptor kinase activity in cells genetically engineered to express human EGF-R can be measured as described below:
# 1. NIH 3T3/C7 cell line (Honegger, et al., Cell 51:199-209, 1987) can be use for this assay.
# 1. Check seeded cells for contamination using an inverted microscope. Dilute test compounds stock (10 mg/ml in DMSO) 1:10 in DMEM medium, then transfer 5 μl to a test well for a test compounds drug dilution of 1:200 and a final DMSO concentration of 1%. Control wells receive DMSO alone. Incubate in 5% CO2 at 37° C. for one hour.
# 2. Prepare EGF ligand: dilute stock EGF in DMEM so that upon transfer of 10 μl dilute EGF (1:12 dilution), 25 nM final concentration is attained.
# 3. Prepare fresh 10 ml HNTG* sufficient for 100 μl per well wherein HNTG* comprises: HNTG stock (2.0 ml), milli-Q H2O (7.3 ml), EDTA, 100 mM, pH 7.0 (0.5 ml), Na3VO4 0.5 M (0.1 ml) and Na4(P2O7), 0.2 M (0.1 ml).
# 5. After two hours incubation with drug, add prepared EGF ligand to cells, 10 μl per well, to yield a final concentration of 25 nM. Control wells receive DMEM alone. Incubate, shaking, at room temperature, for 5 minutes.
# 6. Remove test compound, EGF, and DMEM. Wash cells twice with PBS. Transfer HNTG* to cells, 100 μl per well. Place on ice for 5 minutes. Meanwhile, remove blocking buffer from other ELISA plate and wash with TBST as described above.
# 7. With a pipette tip securely fitted to a micropipettor, scrape cells from plate and homogenize cell material by repeatedly aspirating and dispensing the HNTG* lysis buffer. Transfer lysate to a coated, blocked, and washed ELISA plate. Incubate shaking at room temperature for one hour.
# 8. Remove lysate and wash 4 times with TBST. Transfer freshly diluted anti-Ptyr antibody to ELISA plate at 100 μl per well. […]
# 12. The maximal phosphotyrosine signal is determined by subtracting the value of the negative controls from the positive controls. The percent inhibition of phosphotyrosine content for extract-containing wells is then calculated, after subtraction of the negative controls.
# Chain of EGFR (P00533 25-1210): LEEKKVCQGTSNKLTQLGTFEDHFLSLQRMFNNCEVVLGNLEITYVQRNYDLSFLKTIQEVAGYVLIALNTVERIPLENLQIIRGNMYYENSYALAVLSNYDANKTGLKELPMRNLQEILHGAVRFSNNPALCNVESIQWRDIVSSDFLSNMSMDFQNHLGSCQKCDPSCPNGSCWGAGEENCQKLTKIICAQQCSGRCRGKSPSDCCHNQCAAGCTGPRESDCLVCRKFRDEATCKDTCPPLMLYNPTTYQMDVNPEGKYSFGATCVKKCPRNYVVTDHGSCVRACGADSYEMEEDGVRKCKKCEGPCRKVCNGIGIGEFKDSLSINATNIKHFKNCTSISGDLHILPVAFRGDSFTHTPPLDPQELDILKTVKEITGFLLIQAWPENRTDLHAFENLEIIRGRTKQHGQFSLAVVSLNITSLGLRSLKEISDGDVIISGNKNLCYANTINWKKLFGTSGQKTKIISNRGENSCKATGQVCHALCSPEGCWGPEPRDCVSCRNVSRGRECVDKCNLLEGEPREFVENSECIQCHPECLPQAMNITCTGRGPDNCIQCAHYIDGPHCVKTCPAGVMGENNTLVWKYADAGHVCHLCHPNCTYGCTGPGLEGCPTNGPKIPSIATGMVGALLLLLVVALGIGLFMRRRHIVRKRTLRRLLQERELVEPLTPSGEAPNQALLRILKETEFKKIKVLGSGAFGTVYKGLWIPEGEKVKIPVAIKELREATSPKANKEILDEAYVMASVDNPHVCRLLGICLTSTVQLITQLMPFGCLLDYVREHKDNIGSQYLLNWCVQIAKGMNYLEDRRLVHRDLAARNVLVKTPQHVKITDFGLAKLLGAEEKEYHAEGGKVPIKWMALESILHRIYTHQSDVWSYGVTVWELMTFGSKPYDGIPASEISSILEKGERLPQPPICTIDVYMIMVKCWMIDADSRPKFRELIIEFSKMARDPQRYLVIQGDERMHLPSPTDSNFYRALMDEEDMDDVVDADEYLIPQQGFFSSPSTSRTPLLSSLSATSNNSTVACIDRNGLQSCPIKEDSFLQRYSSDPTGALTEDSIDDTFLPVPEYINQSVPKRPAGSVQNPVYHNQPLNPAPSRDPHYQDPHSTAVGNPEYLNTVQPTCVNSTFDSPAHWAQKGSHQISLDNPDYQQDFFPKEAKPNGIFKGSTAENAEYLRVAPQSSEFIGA
row,IC50,SMILES
1,> 100 µM,"O=C1Nc2ccccc2/C1=C1\CCc2ccccc21 [Compound 10, 3-Indan-1-ylidene-1,3-dihydroindol-2-one]"
2,> 100 µM,"COc1ccc2c(c1)C(CC(=O)O)C/C2=C1/C(=O)Nc2ccccc21 (stereo not drawn) [Compound 11, [6-Methoxy-3-(2-oxo-1,2-dihydroindol-3-ylidene)-indan-1-yl]acetic Acid]"
3,> 100 µM,"COc1ccc2c(c1)C(CC(=O)[O-])CC2=C1C(=O)Nc2ccccc21.[Na+] (stereo not drawn) [Compound 13, [6-Methoxy-3-(2-oxo-1,2-dihydroindol-3-ylidene)-indan-1-yl]acetic Acid Sodium Salt]"
